Laboratory results from patent US20040259888A1, “Novel 4-aminofuropyrimidines and the use thereof” (priority 2001, published 2004).

How the values were obtained:
[1] = molecular target: human recombinant adenosine kinase (Homo sapiens, UniProt P55263); assay: Inhibition of human recombinant adenosine kinase; format: biochemical; conditions: 14C-adenosine substrate, 0.5 mM ATP, 37° C., 20 min; read-out: Adenosine kinase inhibition (in vitro): IC50
Procedure: 1. Inhibition of Human Recombinant Adenosine Kinase
The test is carried out on 96-well filter plates (DE81 from Millipore, DEAE cellulose, 0.65 μm). The test buffer contains 50 mM tris/HCl pH 8.0, 10 mM DTT and 1 mM MgCl2; immediately prior to the start of the test, ATP is added in a concentration of 0.5 mM. The substrate used is ^14C-adenosine, diluted 1:30 in cold adenosine; the final concentration of the cold adenosine is 4×10^−6 M; the amount of ^14C-adenosine is chosen such that, at a volume of 10 μl, an activity of 0.5 kBq (=30 000 decays per minute) is present per well of the filter plate. The substances to be tested are dissolved in DMSO in a concentration of 10^−2 M. Further dilutions are carried out using water.
When carrying out the test, initially 80 μl of buffer are initially charged into each well. The test substances, the substrate adenosine and finally human recombinant adenosine kinase (Mathews J. J. et al., Biochemistry (1998) 37, 15607-15620) in test buffer pH 7.4 are added successively, in each case in a volume of 10 μl. The adenosine kinase concentration is chosen such that at most 30% of the total amount of adenosine are converted. The plates are then incubated at 37° C. for 20 min. The reaction is then stopped by filtration with suction. The filters are washed in each case once with ice-cold wash buffer (15 mM Tris/HCl pH 8.5) and ethanol. The plate is dried at 37° C. (about 15 min). 50 μl of scintillation solution are then pipetted into each well, and the ^14C activity is determined in a MicroBeta counter.
The inhibition of the enzyme activity by the substances tested is determined after substration of the blank value (no added enzyme) in comparison to the uninhibited enzyme (100% value).

Sequence of human recombinant adenosine kinase (P55263 1-345 isoform P55263-2): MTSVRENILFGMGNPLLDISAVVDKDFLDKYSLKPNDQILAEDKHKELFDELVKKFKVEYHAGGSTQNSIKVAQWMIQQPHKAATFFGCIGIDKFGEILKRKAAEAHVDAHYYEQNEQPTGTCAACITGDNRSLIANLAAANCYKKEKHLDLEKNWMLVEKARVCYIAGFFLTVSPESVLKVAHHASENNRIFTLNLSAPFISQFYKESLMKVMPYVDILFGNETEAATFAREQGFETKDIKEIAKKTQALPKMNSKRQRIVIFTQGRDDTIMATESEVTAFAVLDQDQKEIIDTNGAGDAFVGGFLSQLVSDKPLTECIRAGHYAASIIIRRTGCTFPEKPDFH

Row | Compound | IC50 [1] [nM] | melting point [°C]
1 | CN1CCN(c2ncnc3oc(-c4ccc(N)cc4)c(-c4ccc(F)cc4)c23)CC1 [Example 4, 4-[5-(4-Fluorophenyl)-4-(4-methyl-1-piperazinyl)furo[2,3-d]pyrimidin-6-yl]aniline] | 50 | 214 to 215
2 | CN(C)CC(=O)Nc1ccc(-c2oc3ncnc(N4CCOCC4)c3c2-c2ccc(F)cc2)cc1 [Example 35] | 20 | 228 to 235
3 | CN1CCN(c2ncnc3oc(-c4ccc(NCCO)nc4)c(-c4ccccc4)c23)CC1 [Example 37] | 20 | 219 to 221

Further compounds by falling IC50 [1], results first:

Row | IC50 [1] [nM] | melting point [°C] | Compound
4 | 80 | 229 to 231 | CN1CCN(c2ncnc3oc(-c4ccc(N)nc4)c(-c4ccccc4)c23)CC1 [Example 8, 5-[4-(4-Methyl-1-piperazinyl)-5-phenylfuro[2,3-d]pyrimidin-6-yl]-2-pyridineamine]
5 | 10 |  | CN1CCN(c2ccc(-c3oc4ncnc(N5CCC(O)CC5)c4c3-c3ccccc3)cn2)CC1 [Example 10, 1-{6-[6-(4-Methyl-1-piperazinyl)-3-pyridinyl]-5-phenylfuro[2,3-d]pyrimidin-4-yl]-4-piperidinol]
